Several values for one entry are separate records, joined by “and”; a condition that tells them apart may be missing. Identical values can stand only once. Entries after “also recorded” stand apart in the source; their conditions may differ.
Assays:
ABCB1 = ABCB1 (Homo sapiens, UniProt P08183); assay: JC-1 efflux inhibition dose response, flow cytometry, Jurkat-DNR cells; conditions: for IC50: IC50 ABCB1 (efflux inhibition of JC-1 substrate), Jurkat-DNR cells over-expressing ABCB1, averages of two to four replicates
Outline: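 Jurkat-DNR cells pre-stained with 1 μM JC-1 were incubated with compound (final 50 μM to 69 nM, […]) at 1×10^6 cells/mL, rotated 30 min at 25° C. Retained JC-1 read by flow cytometry (488 nm excitation, 530/40 nm emission). Curves fitted to a four-parameter logistic.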

ABCB1 / ABCG2 = biological target: T1, ABCB1 / ABCG2 (Homo sapiens, UniProt Q9UNQ0); assay: JC-1 efflux inhibition dose response, flow cytometry, Ig-MXP3 cells; conditions: human, probe JC-1 (1 µM), ~Fold G2 Selective (B1/G2), quotient of average ABCB1 IC50 and average ABCG2 IC50, efflux assay
T1 sequence (Q9UNQ0 1-655): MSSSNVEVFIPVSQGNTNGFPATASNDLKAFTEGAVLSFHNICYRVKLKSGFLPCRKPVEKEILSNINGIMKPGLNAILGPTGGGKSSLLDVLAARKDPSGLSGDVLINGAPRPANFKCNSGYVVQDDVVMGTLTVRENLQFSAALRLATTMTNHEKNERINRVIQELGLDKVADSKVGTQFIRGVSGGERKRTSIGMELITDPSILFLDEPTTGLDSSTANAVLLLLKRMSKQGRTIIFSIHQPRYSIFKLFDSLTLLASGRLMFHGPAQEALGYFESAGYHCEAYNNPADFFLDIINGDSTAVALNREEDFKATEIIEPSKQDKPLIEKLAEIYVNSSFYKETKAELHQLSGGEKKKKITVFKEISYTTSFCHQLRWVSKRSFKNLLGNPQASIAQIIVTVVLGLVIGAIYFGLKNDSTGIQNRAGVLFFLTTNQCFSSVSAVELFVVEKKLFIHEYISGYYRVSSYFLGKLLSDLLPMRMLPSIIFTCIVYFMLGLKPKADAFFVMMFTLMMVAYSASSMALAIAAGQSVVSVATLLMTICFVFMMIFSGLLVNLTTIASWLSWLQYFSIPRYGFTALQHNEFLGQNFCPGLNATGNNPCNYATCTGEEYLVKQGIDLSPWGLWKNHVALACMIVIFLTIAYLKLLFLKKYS
Outline: (§1)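 Ig-MXP3 (ABCG2) and Jurkat-DNR (ABCB1) cells, run separately, are pre-stained with 1 μM JC-1 and added to compound in PBS; retained dye is read by high-throughput flow cytometry with time-gated analysis.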

ABCG2 = biological target: T2, ABCG2 (Homo sapiens, UniProt Q9UNQ0); assay: as above
T2 sequence (Q9UNQ0 1-655): T1 sequence (Q9UNQ0 1-655)
Outline: as §1

[1] = tested on: ABCB1 over-expressing Jurkat-DNR cells; assay: Chemoreversal assay: potentiation of daunorubicin (DNR) killing; assay type: cell-based; conditions: constant 100 nM DNR, varied inhibitor dose, read-out: CR50 ABCB1
[2] = tested on: ABCG2 over-expressing Ig-MXP3 cells; assay: Chemoreversal assay: potentiation of mitoxantrone (MTX) killing; assay type: cell-based; conditions: Ig-MXP3 cells, constant 30 nM MTX, varied inhibitor dose; read-out: CR50 ABCG2
Jurkat-DNR cells = assay: Direct cytotoxicity (Toxic Dose 50) without chemotherapeutic; conditions: Jurkat-DNR cells, inhibitor without chemotherapeutic
Procedure: Cells (ABCB1, Jurkat-DNR or ABCG2 Ig-MXP3) are incubated with the test compound (3 order of magnitude concentration range) over a 3-day and 7-day period in the presence of the inhibitor and chemotherapeutic (ABCB1, DNR or ABCG2 MTX), such that a cell concentration of at least 1×10^5 cells/mL is maintained. Cell viability is determined by trypan blue staining and enumeration under light microscopy. […] A chemoreversal index (Chemoreversal 50, CR50) is determined from the viability assessment. Using a similar approach, a direct cytotoxicity index (Toxic Dose 50, TD50) is determined by assessment of cell death of cells grown in media alone.
Cells (ABCB1, Jurkat-DNR or ABCG2 Ig-MXP3) were incubated with the test compound in a 3 order of magnitude concentration range over three and seven day periods in the presence of the inhibitor and chemotherapeutic (ABCB1, 100 nM DNR or ABCG2 30 nM MTX), such that a cell concentration of at least 1×10^5 cells mL^−1 was maintained. Cell viability was determined by trypan blue staining and enumeration under light microscopy. […] A chemoreversal index (Chemoreversal 50, CR50) was determined from the viability assessment. Using a similar approach, a direct cytotoxicity index (Toxic Dose 50, TD50) was determined by assessment of cell death of cells grown in media alone.

Ig-MXP3 cells = assay: as above; assay type: cell-based; conditions: Ig-MXP3 cells, inhibitor without chemotherapeutic
[3] = tested on: ABCG2 over-expressing Igrov1/T8 tumors; assay: ABCG2 resistant Igrov1/T8 tumor xenograft, combination with topotecan; assay type: in vivo, CB-17 SCID mice
Procedure: Specific-pathogen-free adult CB-17 female SCID mice (5-6 weeks of age) weighing 20-25 g, are purchased. Briefly, ABCG2 over-expressing Igrov1/T8 cells are injected (5×10^6 cells/mouse). Prior to injection, Igrov1/T8 cells are maintained in topotecan in order to assure continuous expression of ABCG2. Tumors are allowed to grow for 3-4 weeks or until tumor volumes are greater than ˜100 cubic millimeters, at which time they are stratified into treatment groups. Treatment is administered and we observe the size of the tumor and weight of the mouse over a 7 day period. At the end of 7 days, we: 1) sacrifice the animal; 2) measure and weigh the tumor (if present); 3) analyze the histology of the tumor as well as other organs for evidence of toxicity; and 4) measure the expression of ABCG2 receptors on the tumor to determine if in vivo growth has altered ABCG2 expression. In our initial studies, we have generally observed high survival at 4 weeks (>90%) which escalates rapidly with near 100% mortality by 6 weeks. This approach is well described elsewhere.^9
Tumor-bearing mice were injected with either 150 nM TPT, 100 nM SID 88095709 (probe resupply), or 500 nM SID 85752814 (original SMR hit).
Igrov1/T8 cells were injected into the hind limbs of CB-17 SCID mice at a concentration of 1×10^7 cells in 200 μL, n of 3 per condition. The tumor was grown until the volume was in the range of 75 mm^3 to 250 mm^3. […] Injections were repeated daily and the size of the tumor was determined as a fraction of the starting size. After four days the mice were sacrificed and any recurring tumor was verified by light microscopy examination of histological sections. Mice were studied and maintained in accordance with guidelines of our Institutional Animal Research Committee at UNM HSC.

parental Igrov1 cells = assay: Topotecan killing of parental cells; assay type: cell-based; conditions: Homo sapiens, IGROV-1
[4] = tested on: resistant Igrov1/T8 cells; assay: Topotecan killing of resistant cells; assay type: cell-based; conditions: Homo sapiens, IGROV-1

Chain of ABCB1 (P08183 whole entry): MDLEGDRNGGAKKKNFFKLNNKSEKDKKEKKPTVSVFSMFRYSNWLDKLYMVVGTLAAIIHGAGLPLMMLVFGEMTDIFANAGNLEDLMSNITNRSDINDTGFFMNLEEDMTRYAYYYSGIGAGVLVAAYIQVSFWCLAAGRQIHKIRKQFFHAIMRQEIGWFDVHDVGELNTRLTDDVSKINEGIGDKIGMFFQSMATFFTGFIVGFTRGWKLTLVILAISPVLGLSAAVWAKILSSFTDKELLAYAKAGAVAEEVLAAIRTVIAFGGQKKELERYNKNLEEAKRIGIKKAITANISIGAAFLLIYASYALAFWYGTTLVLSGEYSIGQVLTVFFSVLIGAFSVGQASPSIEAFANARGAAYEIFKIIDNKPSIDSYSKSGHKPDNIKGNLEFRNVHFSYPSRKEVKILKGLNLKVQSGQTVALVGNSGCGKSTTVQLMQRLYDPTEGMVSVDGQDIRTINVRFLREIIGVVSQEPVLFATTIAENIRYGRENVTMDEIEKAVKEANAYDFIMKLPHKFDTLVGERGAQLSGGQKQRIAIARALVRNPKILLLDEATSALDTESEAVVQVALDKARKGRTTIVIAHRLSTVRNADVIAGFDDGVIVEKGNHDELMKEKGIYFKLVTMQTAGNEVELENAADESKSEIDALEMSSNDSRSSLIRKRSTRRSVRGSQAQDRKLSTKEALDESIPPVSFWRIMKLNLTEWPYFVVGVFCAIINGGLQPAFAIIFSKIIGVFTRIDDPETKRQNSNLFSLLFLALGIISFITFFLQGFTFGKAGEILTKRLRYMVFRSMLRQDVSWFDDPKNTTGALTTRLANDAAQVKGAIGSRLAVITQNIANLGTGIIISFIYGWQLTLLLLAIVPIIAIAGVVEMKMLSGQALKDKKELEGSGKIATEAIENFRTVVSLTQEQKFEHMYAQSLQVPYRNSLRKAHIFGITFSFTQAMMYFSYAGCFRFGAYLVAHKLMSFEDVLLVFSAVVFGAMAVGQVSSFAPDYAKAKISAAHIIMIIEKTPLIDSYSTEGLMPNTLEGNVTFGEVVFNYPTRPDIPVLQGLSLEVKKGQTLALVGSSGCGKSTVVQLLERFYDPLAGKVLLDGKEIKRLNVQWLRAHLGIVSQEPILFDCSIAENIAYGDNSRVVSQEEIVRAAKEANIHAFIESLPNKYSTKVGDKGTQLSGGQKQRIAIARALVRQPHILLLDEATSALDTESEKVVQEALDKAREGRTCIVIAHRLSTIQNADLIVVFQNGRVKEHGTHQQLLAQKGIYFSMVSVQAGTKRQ

SMILES | IC50 (ABCB1) | selectivity ratio at 30 min (ABCB1 / ABCG2) | IC50 (ABCG2) [nM] | EC50 [1] [nM] | EC50 [2] [nM] | TD50 ABCB1 (Jurkat-DNR cells) [µM] | TD50 ABCG2 (Ig-MXP3 cells) [µM] | efflux inhibition activity ABCB1 (ABCB1; JC-1 efflux, Jurkat-DNR) | Tumor size reduced by ([3]; 100 nM topotecan + 100 nM compound intra-tumorally every 24 hours, 5 days (120 hours), n=5) [%] | tumor size, inhibitor alone ([3]; inhibitor alone (100 nM or 500 nM as printed), Example 3) | ~Fold G2 Selective (B1/G2) (ABCG2; quotient of average ABCB1 IC50 and average ABCG2 IC50, efflux assay) [fold] | tumor size, topotecan alone ([3]; 100 nM topotecan alone, Example 3) | tumor size, single agent ([3]; 150 nM TPT, 100 nM SID 88095709 or 500 nM SID 85752814 alone, listed as TPT) | EC50 (parental Igrov1 cells) [nM] | EC50 [4] [nM]
O=C(c1ccoc1)N1CCN(c2cc(-c3ccncc3)nc3cc(-c4cccc(Cl)c4)nn23)CC1 [Compound 31] | 3680 ± 350 nM | 2.5 | 1460 ± 350 | 600 | 890 | 13.50 | 57.80 |  |  |  |  |  |  |  | 
O=C(c1ccoc1)N1CCN(c2cc(-c3ccco3)nc3cc(-c4cccc(Cl)c4)nn23)CC1 [Compound 53] | 6420 nM | 2.5 | 2550 | 530 | 1380 | 8.53 | 10.80 |  |  |  |  |  |  |  | 
COc1ccccc1-c1cc2nc(-c3ccccc3)cc(N3CCN(C(=O)c4ccoc4)CC3)n2n1 [Compound 34] | 2170 ± 760 nM | 4.8 | 450 ± 170 | 450 | 490 | 4.37 | 6.50 |  |  |  |  |  |  |  | 
CC(=O)N1CCN(c2cc(-c3ccco3)nc3cc(-c4cccc(Cl)c4)nn23)CC1 [Compound 87] | 800 nM | 1.4 | 560 | 80 | 580 | 17.60 | >100 |  |  |  |  |  |  |  | 
COc1cccc(-c2cc3nc(-c4ccco4)cc(N4CCN(C(C)=O)CC4)n3n2)c1 [Compound 88] | 1640 nM | 0.9 | 1900 | 320 | 1180 | 49.30 | >100 |  |  |  |  |  |  |  | 
O=C(Cc1ccccc1)N1CCN(c2cc(-c3ccccc3)nc3cc(-c4cccc(Cl)c4)nn23)CC1 [Compound 24] | 4680 ± 2690 nM | 0.8 | 5760 ± 3400 | 510 | 600 | 17.80 | >100 |  |  |  |  |  |  |  | 
COc1ccccc1-c1cc(N2CCN(C(=O)c3ccoc3)CC2)n2nc(-c3ccccc3)cc2n1 [Compound 44] | 4520 nM and 4620 nM | 1.2 | 3660 ± 2540 | 170 | 680 | 3.73 | 7.62 |  |  |  |  |  |  |  | 
COc1cccc(C(=O)N2CCN(c3cc(-c4ccccc4)nc4cc(-c5cccc(Cl)c5)nn34)CC2)c1 [Compound 15] | 2640 ± 640 nM | 0.6 | 4450 ± 4680 | 350 | 210 | >100 | >100 |  |  |  |  |  |  |  | 
COc1cccc(-c2cc3nc(C)c(C)c(N4CCN(Cc5ccoc5)CC4)n3n2)c1 [SID 97301789] |  | 233 |  |  |  | > 100 | > 100 | abolished activity | 55 | No reduction in size |  |  |  |  | 
COc1ccc(-c2cc3nc(-c4ccccc4)cc(N4CCN(C(=O)c5ccoc5)CC4)n3n2)cc1 [Compound 36] | 1440 ± 700 nM | 1.2 | 1160 ± 660 | 230 | 380 | 5.54 | >100 |  |  |  |  |  |  |  | 
COc1cccc(-c2cc(N3CCN(C(=O)c4ccoc4)CC3)n3nc(-c4ccccc4)cc3n2)c1 [Compound 65] | 16400 nM | 83 | 200 | 180 | 680 | 5.77 | 67.80 |  |  |  | 82.1 |  |  |  | 
O=C(c1cccnc1)N1CCN(c2cc(-c3ccccc3)nc3cc(-c4cccc(Cl)c4)nn23)CC1 [Compound 20] | 570 ± 80 nM | 2.5 | 230 ± 150 | 170 | 130 | 4.72 | 10.30 |  |  |  |  |  |  |  | 
O=C(c1ccoc1)N1CCN(c2cc(-c3ccco3)nc3cc(-c4ccco4)nn23)CC1 [Compound 52] | 1700 nM | 0.7 | 2350 | 190 | 1210 | 1.93 | >100 |  |  |  |  |  |  |  | 
CC[C@@]1(O)C(=O)OCc2c1cc1n(c2=O)Cc2cc3c(CN(C)C)c(O)ccc3nc2-1 [Topotecan, reference compound] |  |  |  |  |  |  |  |  |  |  |  | No reduction in size | remained the same or increased; also recorded: did not affect the growth of tumors | 7 | 311
